Assay: Characteristic feature of the main excipients
Settings: effect of excipient in donepezil film
Description: The characteristic feature of the main excipients of the present invention—In order to achieve the object of the above formulation research, it can be seen that the main excipients of the below Table 3 are essential elements.

Row | Compound | Occurrence of the impurity
1 | Cc1cc(C(C)(C)C)c(O)c(C(C)(C)C)c1 [Dibuthylhydroxytoluene] | Inhibition
2 | CC(O)COC[C@H]1O[C@@H]2O[C@H]3[C@H](O)[C@@H](O)[C@@H](O[C@H]4[C@H](O)[C@@H](O)[C@@H](O[C@H]5[C@H](O)[C@@H](O)[C@@H](O[C@H]6[C@H](O)[C@@H](O)[C@@H](O[C@H]7[C@H](O)[C@@H](O)[C@@H](O[C@H]8[C@H](O)[C@@H](O)[C@@H](O[C@H]1[C@H](O)[C@H]2O)O[C@@H]8COCC(C)O)O[C@@H]7COCC(C)O)O[C@@H]6COCC(C)O)O[C@@H]5COCC(C)O)O[C@@H]4COCC(C)O)O[C@@H]3COCC(C)O (some centres unmarked) [Hydroxypropylbetadex] | Inhibition

Reference: patent publication US20160184439A1, “ORALLY DISINTEGRATING FILM PREPARATION CONTAINING DONEPEZIL OR PHARMACEUTICALLY ACCEPTABLE SALT THEREOF, AND PREPARATION METHOD THEREFOR” (SEOUL PHARMA. CO., LTD., priority 2013, published 2016)
